Measured values: PMC11597260 (Pharmaceutics, 2024)
“And” between values parts separate entries of the source, which are not always exact repeats. Identical values can stand only once. Like-named read-outs stand apart in the source and are kept apart here.

Columns and labels:
[1] = Pharmacokinetic study in rats after oral and intratracheal administration of curcumin (plasma, LC-MS/MS); assay type: in vivo, Sprague-Dawley rats
Description: This preparation was then diluted with saline to obtain the desired concentrations for animal experiments.
Twelve male SD rats were randomly divided into two groups with six rats each, one for oral administration and the other for inhalation administration. […] Blood samples of approximately 200 μL were collected via intravenous routes at pre-determined time points: before administration and at 5, 15, 30, and 45 min, and 1, 2, 4, 6, and 8 h post-administration. The blood samples were immediately placed in heparinized EP tubes and kept on ice. […] The specific method of intratracheal administration is depicted in Figure 1, and details of the administration process are provided in the Supplementary Materials (Supplementary Figure S2). Blood samples of about 200 μL were collected at time points before administration and at 2, 5, 15, and 30 min, and 1, 2, 4, 6, 8, 12, and 24 h post-administration, also placed in heparinized EP tubes and kept on ice. The whole blood samples were centrifuged at 4 °C at 5000× g for 10 min within 30 min of collection. The plasma was then separated, aliquoted, and stored at −40 °C until analysis.
The major pharmacokinetic parameters including elimination half-life (t1/2), time to reach peak concentration (Tmax), peak concentration (Cmax), area under the curve (AUC), and mean residence time (MRT) were calculated using Phoenix WinNonlin software (Version 8.2, Certara, Radnor, PA, USA). A non-compartmental model was employed for these calculations, which is suitable for analyzing drug concentration data over time without assuming a specific compartmental structure. Graph Prism 8 was utilized to create graphs and plots that illustrate the pharmacokinetic behavior of the compounds of interest. Statistical analysis was performed using IBM SPSS Statistics 26 to conduct a t-test on the dose-normalized AUC(0−t) values from the two different administration groups. […] The results were considered statistically significant at a p-value less than 0.05, indicating a difference between the groups.

[2] = Stability of spiked rat plasma QC samples under storage conditions; assay type: in vitro ADME; conditions: for Stability, Accuracy (%): rat plasma, mean ± SD, n = 3; for stability of rat plasma samples under storage conditions: room temperature 4 h, 4 °C 8 h, −40 °C 7 days, three freeze–thaw cycles
Caco-2 cell model = conditions: cited from earlier work
[3] = oral curcumin in rats; cited from earlier work
[4] = rat plasma, i.t. curcumin 10 mg/kg (27.17 μmol/kg), mean ± SD, n = 6
[5] = rat plasma, i.t. curcumin 10 mg/kg, dose-normalized to oral dose (inhalation/0.5)
[6] = rat plasma, p.o. curcumin 20 mg/kg (54.34 μmol/kg), mean ± SD, n = 6
[7] = 6 ng/mL, freeze-thaw three cycles
[8] = 6 ng/mL, room temperature for 4 h
[9] = 60 ng/mL, freeze-thaw three cycles
[10] = 60 ng/mL, room temperature for 4 h
[11] = 320 ng/mL, freeze-thaw three cycles
[12] = 320 ng/mL, room temperature for 4 h
[13] = male, Sprague-Dawley, rat, plasma, inhaled or intranasal, 10 mg/kg

| Compound | AUC(0–t) [1, 4] [µM·h] | AUC(0–∞) [1, 4] [µM·h] | Cmax [1, 4] [nM] | MRT(0–t) [1, 4] [h] | Tmax [1, 4] [h] | t1/2 [1, 4] [h] | AUC(0–t)/0.5 [1, 5] [µM·h] | AUC(0–t) [1, 6] [µM·h] | Stability, Accuracy (%) ([2]; 6 ng/mL, 4 ℃ for 8 h) | Stability, Accuracy (%) ([2]; 6 ng/mL, 40 ℃ for 7 d) | Stability, Accuracy (%) [2, 7] [%] | Stability, Accuracy (%) [2, 8] [%] | Stability, Accuracy (%) ([2]; 60 ng/mL, 4 ℃ for 8 h) | Stability, Accuracy (%) ([2]; 60 ng/mL, 40 ℃ for 7 d) | Stability, Accuracy (%) [2, 9] [%] | Stability, Accuracy (%) [2, 10] [%] | Stability, Accuracy (%) ([2]; 320 ng/mL, 4 ℃ for 8 h) | Stability, Accuracy (%) ([2]; 320 ng/mL, 40 ℃ for 7 d) | Stability, Accuracy (%) [2, 11] [%] | Stability, Accuracy (%) [2, 12] [%] | also measured |
| --- | --- | --- | --- | --- | --- | --- | --- | --- | --- | --- | --- | --- | --- | --- | --- | --- | --- | --- | --- | --- | --- |
| COc1cc(/C=C/C(=O)CC(=O)/C=C/c2ccc(O[C@@H]3O[C@H](C(=O)O)[C@@H](O)[C@H](O)[C@H]3O)c(OC)c2)ccc1O [COG] | 0.8863 ± 0.1783 | 0.9189 ± 0.1678 | 521 ± 203 | 4.33 ± 1.69 | 0.25 ± 0.00 | 3.10 ± 0.95 | 1.772 ± 0.3566 | 1.68 ± 0.2441 | 88.10±4.59 | 104.10±7.03 | 89.23±3.79 | 90.20±4.16 | 90.43±2.97 | 87.13±2.10 | 87.93±2.81 | 95.53±2.01 | 93.60±2.52 | 88.93±0.99 | 87.87±2.32 | 95.73±2.23 | exposure relative to COS ([1]; rat plasma, oral dosing of 20 mg/kg curcumin): 30–40 times; AUC(0–∞) [1, 6]: 1.73 ± 0.2565 µM·h; Cmax [1, 6]: 830 ± 158 nM; MRT(0–t) [1, 6]: 2.54 ± 0.29 h; Tmax [1, 6]: 0.54 ± 0.71 h; t1/2 [1, 6]: 1.74 ± 0.57 h; stability of rat plasma samples under storage conditions [2]: stable |
| COc1cc(/C=C/C(=O)CC(=O)/C=C/c2ccc(OS(=O)(=O)O)c(OC)c2)ccc1O [COS] | 1.377 ± 0.6043 | 1.444 ± 0.6249 | 416 ± 138 | 5.14 ± 1.03 | 0.38 ± 0.14 | 5.02 ± 1.27 | 2.754 ± 1.208 | 0.04978 ± 0.02714 | 100.63±2.40 | 90.73±1.36 | 93.73±4.97 | 99.67±4.83 | 93.27±2.31 | 94.53±0.40 | 93.23±0.96 | 96.63±1.39 | 99.23±1.50 | 92.43±5.58 | 93.80±0.46 | 100.77±0.65 | exposure, AUC(0–t)/0.5 intratracheal relative to AUC(0–t) oral ([1]; rat plasma, i.t. 10 mg/kg dose-normalized vs p.o. 20 mg/kg): ~50 fold; AUC(0–∞) [1, 6]: 0.0577 ± 0.02778 µM·h; Cmax [1, 6]: 23.4 ± 9.4 nM; MRT(0–t) [1, 6]: 2.37 ± 0.98 h; Tmax [1, 6]: 1.13 ± 0.96 h; t1/2 [1, 6]: 1.11 ± 0.87 h; stability of rat plasma samples under storage conditions [2]: stable |
| COc1cc(/C=C/C(=O)CC(=O)/C=C/c2ccc(O)c(OC)c2)ccc1O [CUR, Curcumin] | – | – | – | – | – | – | – | – | 96.00±2.57 | 105.13±4.11 | 102.33±7.46 | 92.53±2.91 | 97.73±0.83 | 97.40±0.36 | 95.20±2.19 | 98.57±2.22 | 102.67±0.06 | 93.87±3.21 | 90.10±4.20 | 103.93±1.07 | AUC(0-inf) [1, 13]: 1.38 ± 0.37 µM·h; Cmax [1, 13]: 2880 ± 742 nM; half-life [1, 13]: 3.73 ± 1.03 h; AUC(0-t) ([1]; male, Sprague-Dawley, rat, plasma, inhaled or intranasal, 10 mg/kg, rat plasma, i.t. curcumin 10 mg/kg (27.17 μmol/kg), mean ± SD, n = 6, read-out: AUC(0–t)): 1.33 ± 0.374 µM·h; AUC(0-t) ([1]; male, Sprague-Dawley, rat, plasma, inhaled or intranasal, 10 mg/kg, rat plasma, i.t. curcumin 10 mg/kg, dose-normalized to oral dose (inhalation/0.5), read-out: AUC(0–t)/0.5): 2.65 ± 0.749 µM·h; MRT last ([1]; male, Sprague-Dawley, rat, plasma, inhaled or intranasal, 10 mg/kg, read-out: MRT(0–t)): 2.01 ± 0.78 h; Tmax ([1]; male, Sprague-Dawley, rat, plasma, inhaled or intranasal, 10 mg/kg, read-out: Tmax): 0.05 ± 0.03 h; AUC(0-t) ([1]; male, Sprague-Dawley, rat, plasma, po, 20 mg/kg, rat plasma, p.o. curcumin 20 mg/kg, calculated using the lower limit of quantification over 6 h, read-out: AUC(0–t)): < 0.0326 µM·h; plasma levels of the parent compound (below lower limit of quantification) ([1]; rat plasma, oral dosing of 20 mg/kg curcumin, 20 mg/kg): < 2 ng/mL and < 5.434 nM; Papp (Caco-2 cell model): 3.18 ± 1.08 × 10^−6 cm/s; bioavailability [3]: less than 1% |
